From ChEMBL document CHEMBL1201862, “PubChem BioAssay data set” (2004)
Activity calls are given as the source filed them.

Key:
[1] = biological target: T1, Probable nicotinate-nucleotide adenylyltransferase (Staphylococcus aureus (strain N315), UniProt P65502); type: functional, Staphylococcus aureus subsp. aureus N315;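 on IC50 Mean: confirmatory dose-response retesting of NadD inhibitor hits first found in an ultra-high-throughput screen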
[2] = biological target: T1, Probable nicotinate-nucleotide adenylyltransferase; type: functional, Staphylococcus aureus subsp. aureus N315; settings: read-out: IC50_Mean
[3] = biological target: T2, High affinity choline transporter 1 (Homo sapiens, UniProt Q9GZV3); assay: human choline transporter blockers, potency – cell-based, 5-point CRC, membrane potential dye, dose response (AID 504840); type: functional
T2 sequence (Q9GZV3 whole entry): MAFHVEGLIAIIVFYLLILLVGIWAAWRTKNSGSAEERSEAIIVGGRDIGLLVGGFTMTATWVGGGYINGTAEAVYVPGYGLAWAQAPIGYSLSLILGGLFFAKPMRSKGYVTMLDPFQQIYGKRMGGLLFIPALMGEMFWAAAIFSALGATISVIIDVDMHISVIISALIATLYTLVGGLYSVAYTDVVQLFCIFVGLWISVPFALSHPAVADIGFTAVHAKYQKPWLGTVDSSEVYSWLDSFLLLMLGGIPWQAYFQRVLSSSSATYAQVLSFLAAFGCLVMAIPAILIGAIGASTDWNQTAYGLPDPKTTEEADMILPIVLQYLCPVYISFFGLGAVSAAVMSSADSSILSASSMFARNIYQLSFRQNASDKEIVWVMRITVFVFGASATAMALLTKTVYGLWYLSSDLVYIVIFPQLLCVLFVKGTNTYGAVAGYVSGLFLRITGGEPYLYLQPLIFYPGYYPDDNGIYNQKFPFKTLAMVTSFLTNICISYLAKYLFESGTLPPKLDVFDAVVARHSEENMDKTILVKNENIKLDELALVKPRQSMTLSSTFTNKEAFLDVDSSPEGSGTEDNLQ

H9c2 = assay: cells; type: functional, cell-based; settings: Rattus norvegicus, H9c2, Myocardium;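 further: confirmatory concentration-response retest of ultra-high-throughput screening hits for modulation of myocardial damage; cell death induced by hydrogen peroxide oxidative stress; compound pretreatment for 60 min then peroxide exposure for 2 h; potency is for protecting the cells against peroxide damage rather than for killing them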
Aminopeptidase N = biological target: T3, Aminopeptidase N (Plasmodium falciparum FcB1/Columbia, UniProt O96935); assay: malaria alanyl aminopeptidase activity blockers – biochemical, fluorogenic H-Leu-NHMec substrate, 1536-well (AID 1445); set-up: species or system Plasmodium falciparum 3D7, 3D7
T3 sequence (O96935 whole entry): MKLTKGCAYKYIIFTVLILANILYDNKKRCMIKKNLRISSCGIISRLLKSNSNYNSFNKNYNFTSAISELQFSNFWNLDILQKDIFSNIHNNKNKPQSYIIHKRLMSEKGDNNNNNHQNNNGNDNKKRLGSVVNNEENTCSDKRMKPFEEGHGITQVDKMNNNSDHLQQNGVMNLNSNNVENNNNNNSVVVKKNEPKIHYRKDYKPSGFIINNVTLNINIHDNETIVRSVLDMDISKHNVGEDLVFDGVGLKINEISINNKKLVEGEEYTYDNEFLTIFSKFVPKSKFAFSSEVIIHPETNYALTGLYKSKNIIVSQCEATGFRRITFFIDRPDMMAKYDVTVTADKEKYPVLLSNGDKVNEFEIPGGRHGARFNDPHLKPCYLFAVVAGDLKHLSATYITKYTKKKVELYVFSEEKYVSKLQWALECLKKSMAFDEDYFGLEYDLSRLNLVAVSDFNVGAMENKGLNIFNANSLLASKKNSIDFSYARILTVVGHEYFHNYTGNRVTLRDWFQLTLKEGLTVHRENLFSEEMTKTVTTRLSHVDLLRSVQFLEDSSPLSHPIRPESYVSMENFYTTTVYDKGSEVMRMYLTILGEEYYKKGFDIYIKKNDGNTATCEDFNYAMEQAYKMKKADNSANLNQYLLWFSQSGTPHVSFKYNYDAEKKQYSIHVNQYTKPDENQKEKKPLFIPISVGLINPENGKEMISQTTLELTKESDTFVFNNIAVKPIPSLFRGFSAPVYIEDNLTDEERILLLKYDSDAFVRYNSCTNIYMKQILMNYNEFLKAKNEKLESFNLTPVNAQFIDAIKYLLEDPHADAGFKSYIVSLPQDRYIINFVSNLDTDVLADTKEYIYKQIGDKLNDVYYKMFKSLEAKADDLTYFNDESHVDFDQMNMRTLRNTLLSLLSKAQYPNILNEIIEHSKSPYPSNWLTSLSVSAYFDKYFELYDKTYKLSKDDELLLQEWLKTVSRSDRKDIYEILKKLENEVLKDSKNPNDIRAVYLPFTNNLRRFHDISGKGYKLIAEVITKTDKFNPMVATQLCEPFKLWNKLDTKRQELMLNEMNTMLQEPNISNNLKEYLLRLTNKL

Cytochrome P450 2C19 = Cytochrome P450 2C19 (Homo sapiens, UniProt P33261); assay: Cytochrome panel assay with activity outcomes. Panel member name: p450-cyp2c19 Compounds with AC50 equal or less than 10 uM are considered active; type: functional
Caspase-6 = biological target: T4, Caspase-6 (Homo sapiens, UniProt P55212); assay: inhibition of CASP6 peptide cleavage – biochemical, VEID-R110 fluorescence, cherry-pick, dose response (AID 720632)
T4 sequence (P55212 whole entry): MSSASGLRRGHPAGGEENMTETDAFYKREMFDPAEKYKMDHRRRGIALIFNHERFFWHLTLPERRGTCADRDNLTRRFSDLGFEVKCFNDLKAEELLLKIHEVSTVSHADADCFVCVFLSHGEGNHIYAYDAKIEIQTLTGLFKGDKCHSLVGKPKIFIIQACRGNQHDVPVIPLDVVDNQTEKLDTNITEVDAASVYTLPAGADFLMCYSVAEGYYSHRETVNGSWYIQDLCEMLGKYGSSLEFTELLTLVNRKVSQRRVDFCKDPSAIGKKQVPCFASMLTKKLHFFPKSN

Paired box protein Pax-8 = Paired box protein Pax-8 (Homo sapiens, UniProt Q06710); assay: PAX8 transcriptional activity inhibition in RMG-I – RMG-I cells, luciferase, cherry-pick, dose response (AID 687027); type: functional, cell-based;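 further: luciferase reporter driven by Pax8 target thyroperoxidase promoter measured by SteadyGlo luminescence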
[4] = luciferase reporter signal suppression in cells – H4 neuroglioma cells, luminescence, dose response (AID 1990); type: functional, cell-based
[5] = Luminescence Cell-Based Dose Response HTS to Identify Inhibitors of 5'UTR Stem-Loop Driven Prion Protein mRNA Translation in H4 Neuroglioblastoma Cells. [Related pubchem assays: 1827 (Project Summary), 1813 (Primary HTS)]; type: functional
[6] = biological target: T5, Heat shock factor protein 1 (Mus musculus, UniProt P38532); assay: decrease of HSF1-responsive luciferase luminescence – cell-based, NIH3T3, dose retest, confirmation (AID 2382); type: functional;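 further: NIH3T3 fibroblasts with HSF1-driven luciferase reporter stressed by proteasome inhibitor MG132; luminescence from HSF1-driven luciferase expression after 8 hours of MG132 stress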
T5 sequence (P38532 whole entry): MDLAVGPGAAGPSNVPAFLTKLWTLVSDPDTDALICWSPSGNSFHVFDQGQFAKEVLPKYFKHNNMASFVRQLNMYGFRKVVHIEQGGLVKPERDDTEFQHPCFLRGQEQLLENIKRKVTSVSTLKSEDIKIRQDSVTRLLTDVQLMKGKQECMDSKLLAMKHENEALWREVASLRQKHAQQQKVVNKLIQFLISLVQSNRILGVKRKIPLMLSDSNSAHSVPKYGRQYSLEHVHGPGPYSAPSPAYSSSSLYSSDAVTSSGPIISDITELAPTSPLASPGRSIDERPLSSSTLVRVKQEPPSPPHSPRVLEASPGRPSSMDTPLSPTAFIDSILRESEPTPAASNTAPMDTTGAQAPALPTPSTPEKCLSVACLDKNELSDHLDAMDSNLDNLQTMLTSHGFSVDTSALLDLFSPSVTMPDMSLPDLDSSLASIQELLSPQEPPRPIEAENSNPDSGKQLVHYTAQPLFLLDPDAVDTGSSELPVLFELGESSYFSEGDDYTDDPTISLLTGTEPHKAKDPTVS

[7] = alpha-synuclein stem-loop luciferase translation blockers – H4 neuroglioma cells, luminescence, confirmation (AID 1988); type: functional, cell-based
[8] = biological target: Luciferin 4-monooxygenase (Photinus pyralis, UniProt P08659); assay: inhibition of purified Photinus pyralis luciferase – biochemical, luminescence, dose response (AID 1891)
[9] = Luminescence Cell-Based Dose Confirmation HTS to Identify Inhibitors of Platelet Dense Granule Release. [Related pubchem assays: 1663 (Primary HTS), 1678 (Summary of Project)]; type: functional
[10] = reduction of Shn3 3'UTR-driven luciferase in osteoblasts – cell-based, Clone20 osteoblasts, firefly luciferase, cherry-picked, dose response (AID 624132); type: functional;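 further: firefly luciferase luminescence from reporter carrying the Shn3 3'UTR in osteoblasts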
[11] = loss of viability in HepG2 cells – cell-based, CellTiter-Glo, cherry-picked, cytotoxicity control for Shn3 inhibitor project, dose response (AID 624134); type: functional
[12] = non-specific 3'UTR reporter inhibition in Clone20-Shn3RL – cell-based, Renilla luciferase, cherry-picked, counter-screen for Shn3 inhibitor project, dose response (AID 624133); type: functional
Protein skinhead-1 = biological target: T6, Protein skinhead-1 (Caenorhabditis elegans, UniProt P34707); type: functional
T6 sequence (P34707 whole entry): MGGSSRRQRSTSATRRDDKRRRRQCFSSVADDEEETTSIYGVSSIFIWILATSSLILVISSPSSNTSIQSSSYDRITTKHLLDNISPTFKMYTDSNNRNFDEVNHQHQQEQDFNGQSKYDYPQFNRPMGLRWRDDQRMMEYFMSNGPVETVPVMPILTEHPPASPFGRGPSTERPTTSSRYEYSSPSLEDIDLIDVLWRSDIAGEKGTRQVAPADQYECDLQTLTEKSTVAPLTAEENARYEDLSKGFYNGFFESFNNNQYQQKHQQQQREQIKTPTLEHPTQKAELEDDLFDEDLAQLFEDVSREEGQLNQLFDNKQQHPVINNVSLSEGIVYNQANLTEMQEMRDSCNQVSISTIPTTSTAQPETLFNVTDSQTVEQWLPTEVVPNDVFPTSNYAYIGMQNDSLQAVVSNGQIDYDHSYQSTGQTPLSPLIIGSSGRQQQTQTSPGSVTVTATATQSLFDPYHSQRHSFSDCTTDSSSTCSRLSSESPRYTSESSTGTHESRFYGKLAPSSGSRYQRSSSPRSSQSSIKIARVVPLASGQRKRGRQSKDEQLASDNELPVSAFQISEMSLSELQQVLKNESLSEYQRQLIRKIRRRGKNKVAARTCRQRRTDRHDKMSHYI

T1 sequence (P65502 whole entry): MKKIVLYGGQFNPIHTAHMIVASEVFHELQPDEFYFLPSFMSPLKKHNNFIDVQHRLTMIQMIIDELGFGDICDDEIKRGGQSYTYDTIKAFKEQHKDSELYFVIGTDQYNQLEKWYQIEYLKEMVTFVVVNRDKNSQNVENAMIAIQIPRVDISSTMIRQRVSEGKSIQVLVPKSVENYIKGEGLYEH
Sequence of Paired box protein Pax-8 (Q06710 whole entry): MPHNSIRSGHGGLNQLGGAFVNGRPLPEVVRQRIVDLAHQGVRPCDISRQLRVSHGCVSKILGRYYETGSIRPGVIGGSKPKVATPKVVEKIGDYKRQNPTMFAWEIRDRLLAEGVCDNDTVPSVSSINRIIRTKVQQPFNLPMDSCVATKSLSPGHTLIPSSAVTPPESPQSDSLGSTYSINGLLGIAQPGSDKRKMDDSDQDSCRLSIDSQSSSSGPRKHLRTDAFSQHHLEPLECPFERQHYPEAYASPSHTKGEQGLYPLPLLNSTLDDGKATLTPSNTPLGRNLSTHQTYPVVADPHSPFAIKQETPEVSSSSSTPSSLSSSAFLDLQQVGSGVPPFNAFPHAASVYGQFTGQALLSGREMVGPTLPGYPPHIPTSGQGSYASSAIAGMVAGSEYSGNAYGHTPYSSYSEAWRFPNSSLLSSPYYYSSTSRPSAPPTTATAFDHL
Sequence of Luciferin 4-monooxygenase (P08659 whole entry): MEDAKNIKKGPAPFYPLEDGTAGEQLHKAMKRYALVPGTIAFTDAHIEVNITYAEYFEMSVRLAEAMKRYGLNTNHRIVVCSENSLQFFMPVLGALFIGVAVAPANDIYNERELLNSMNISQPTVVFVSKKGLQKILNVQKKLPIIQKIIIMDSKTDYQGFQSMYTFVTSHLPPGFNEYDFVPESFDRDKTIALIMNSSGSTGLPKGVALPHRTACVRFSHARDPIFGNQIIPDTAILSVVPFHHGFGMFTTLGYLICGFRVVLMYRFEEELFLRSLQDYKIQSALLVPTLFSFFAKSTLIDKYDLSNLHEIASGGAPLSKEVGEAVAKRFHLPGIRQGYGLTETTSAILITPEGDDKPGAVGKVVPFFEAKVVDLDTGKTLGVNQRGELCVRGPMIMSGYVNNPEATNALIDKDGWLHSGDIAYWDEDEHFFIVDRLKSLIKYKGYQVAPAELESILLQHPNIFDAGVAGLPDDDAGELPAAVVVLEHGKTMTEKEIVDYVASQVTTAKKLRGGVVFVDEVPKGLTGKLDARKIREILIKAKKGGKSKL
Sequence of Cytochrome P450 2C19 (P33261 whole entry): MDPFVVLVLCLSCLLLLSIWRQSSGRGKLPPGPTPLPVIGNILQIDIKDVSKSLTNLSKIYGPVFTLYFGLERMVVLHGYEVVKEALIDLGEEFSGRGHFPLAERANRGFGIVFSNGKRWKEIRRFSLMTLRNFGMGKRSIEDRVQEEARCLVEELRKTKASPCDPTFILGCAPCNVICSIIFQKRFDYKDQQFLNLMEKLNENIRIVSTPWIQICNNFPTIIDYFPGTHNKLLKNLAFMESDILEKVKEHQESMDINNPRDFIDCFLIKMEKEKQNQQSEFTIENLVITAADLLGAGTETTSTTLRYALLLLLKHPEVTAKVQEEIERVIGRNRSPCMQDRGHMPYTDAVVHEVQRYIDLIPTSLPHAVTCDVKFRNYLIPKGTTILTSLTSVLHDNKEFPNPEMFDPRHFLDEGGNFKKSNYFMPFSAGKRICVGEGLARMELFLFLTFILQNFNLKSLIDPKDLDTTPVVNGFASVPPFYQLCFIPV

Compound: Cc1ccc(C)c(NC(=O)C(OC(=O)c2ccc(NC(=O)CC#N)cc2)c2ccccc2)c1 (stereo not drawn)
- IC50 [1]: 11.4 µM (active)
- IC50 [2]: 42.7 µM (active)

Compound: c1ccc(CCCCN2C(Nc3ccccc3)=NC[C@@H]2Cc2ccccc2)cc1
- IC50 [3]: 12 µM (active)

Compound: CC(=O)c1cccc(-c2cnc3c(NC=O)cc(-c4cccc(C(=O)N(C)C)c4)cn23)c1
- IC50 (H9c2): > 79 µM (inactive)

Compound: CCc1cccc2c(/C=N/NC(=O)c3cccc(S(=O)(=O)Nc4ccccc4Cl)c3)c[nH]c12
- IC50 [1]: 11.2 µM (active)
- IC50 [2]: 31.2 µM (active)

Compound: CN(C)C(=O)c1ccc(-c2nnc(O)c3ccccc23)cc1
- IC50 (H9c2): > 79 µM (inactive)

Compound: CC1CCCCN1CCNC(=O)CN1C(=O)CSc2ccc(S(=O)(=O)N3CCCCC3)cc21 (stereo not drawn)
- IC50 [3]: 12.9 µM (active)

Compound: CCOc1nc(N=C(N)N)nc2c(C)cccc12
- IC50 (Aminopeptidase N): 7.38 µM (active)
- AC50 (Cytochrome P450 2C19): inconclusive

Compound: C/C(=N\Nc1ccc(C(=O)O)cc1)c1ccc(Br)cc1
- AC50 (Caspase-6): 7.07 µM (active)

Compound: CCC(C)(C)n1nnnc1C(c1ccc2ncccc2c1)N1CCN(c2nc3ccccc3s2)CC1 (stereo not drawn)
- IC50 (Aminopeptidase N): 51.1 µM (active)

Compound: COc1ccc(-c2cnc3c(NC=O)cc(-c4cccc(NS(C)(=O)=O)c4)cn23)cc1OC
- IC50 (H9c2): > 79 µM (inactive)
- AC50 (Paired box protein Pax-8): 5.09 µM (active)

Compound: Cc1ccc(S(=O)(=O)N(NC2=NS(=O)(=O)c3ccccc32)C(=O)c2ccccc2)cc1
- IC50 (Aminopeptidase N): 46.8 µM (active)

Compound: Cn1/c(=N/CC(O)COc2ccccc2)sc2ccccc21 (stereo not drawn)
- IC50 [3]: 13.5 µM (active)

Compound: O=C(COC(=O)c1ccc(Oc2ccccc2)cc1)Nc1nnc(-c2ccccc2)o1
- IC50 [1]: 9.58 µM (active)
- IC50 [2]: 23.8 µM (active)

Compound: C[n+]1ccccc1COc1ccc(C(C)(C)C)cc1
- IC50 [3]: 13.8 µM (active)

Compound: COc1ccc2c(c1)sc1nc(-c3ccccc3)cn12
- EC50 [4]: 681 nM (active)
- EC50 [5]: 388 nM (active)
- EC50 [6]: 2.23 µM (active)
- EC50 [7]: 299 nM (active)
- EC50 [8]: 669 nM (active)
- EC50 [9]: 4.62 µM (active)
- AC50 [10]: 7.37 µM (active)
- AC50 [11]: 42.3 µM (active)
- AC50 [12]: 13.2 µM (active)
- IC50 (Protein skinhead-1): > 100 µM (inactive)

Compound: CCc1cc(=O)oc2c(CN3CCN(C)CC3)c(O)c(Cl)cc12
- IC50 (Aminopeptidase N): 35.9 µM (active)

Compound: COc1ccc(C(C(=O)NC2CCCCC2)N(C(=O)c2ccco2)c2ccccc2C(C)=O)cc1OC (stereo not drawn)
- IC50 [3]: 2 µM (active)

Compound: COc1ccc2ccccc2c1/C=N/NC(=O)c1nnn(-c2nonc2N)c1C(C)C
- IC50 [1]: 38 µM (active)
- IC50 [2]: 78 µM (active)
